Data published in patent US7674803B2, “Thiazolypiperidine derivatives as MTP inhibitors” (Merck Patent GmbH, priority 2003, dated 2010).
pIC50: −log10 of the molar value.

What was measured:
[1] = test system: apo B secretion in HepG2 cells; experiment: Inhibition of apo B secretion in HepG2 cells (sandwich-ELISA); assay type: cell-based; details: 24 hours incubation, culture supernatant tested by ELISA specific for human apo B, read-out: IC50, concentration that produces a 50% inhibition of apo B secretion in the HepG2 cells
Description: Analysis of the Reaction of apo B in the HepG2 Human Cell Line:
The activity of a compound according to the invention can be evaluated by measuring the inhibition of apo B secretion in HepG2 cells.
The HepG2 cells (ECACC—No. 85011430) are used as model in the study of the in vitro hepatic secretion of lipoproteins (Dixon J. and Ginsberg H., J. i Lipid. Res., 1993, 34, 167-179).
The HepG2 cells are cultured in Dulbecco's modified Eagle's medium comprising 10% foetal calf serum (DMEM and FBS-Gibco) in 96-well plates under an atmosphere of 5% carbon dioxide for 24 hours (about 70% confluence).
The test compounds are dissolved at a concentration of 2 or 10 mM in dimethyl sulfoxide (DMSO). Serial dilutions (1:3.16) are made in DMSO and are added (1:200—Robot Multimek Beckman) to the growth medium (200 μL) and then finally incubated for 24 hours in the various wells containing the HepG2cells.
The 24-hour culture supernatant diluted to 1:5 (phosphate-buffered saline: PBS comprising 1% bovine serum albumin) is tested according to a sandwich-ELISA method specific for human apo B.
The results are expressed in terms of IC50, i.e. the concentration that produce a 50% inhibition of apo B secretion in the HepG2 cells.

[2] = molecular target: T1, microsomal triglyceride transfer protein (MTP) (Mesocricetus auratus, UniProt P55158); experiment: Inhibition of MTP activity (transfer of labelled triglyceride from donor to acceptor particle, SPA); assay type: biochemical; details: MTP from golden hamster liver microsomes; [3H]-triolein transfer to LDL-biot; incubation 18-24 hours at 37° C.; read-out: IC50, concentration that allows a 50% inhibition of MTP
T1 construct: The supernatant comprising the soluble MTP is dialysed; from tissue; host or cells: golden hamster liver microsomes, deoxycholate-solubilised
T1 sequence (P55158 19-895): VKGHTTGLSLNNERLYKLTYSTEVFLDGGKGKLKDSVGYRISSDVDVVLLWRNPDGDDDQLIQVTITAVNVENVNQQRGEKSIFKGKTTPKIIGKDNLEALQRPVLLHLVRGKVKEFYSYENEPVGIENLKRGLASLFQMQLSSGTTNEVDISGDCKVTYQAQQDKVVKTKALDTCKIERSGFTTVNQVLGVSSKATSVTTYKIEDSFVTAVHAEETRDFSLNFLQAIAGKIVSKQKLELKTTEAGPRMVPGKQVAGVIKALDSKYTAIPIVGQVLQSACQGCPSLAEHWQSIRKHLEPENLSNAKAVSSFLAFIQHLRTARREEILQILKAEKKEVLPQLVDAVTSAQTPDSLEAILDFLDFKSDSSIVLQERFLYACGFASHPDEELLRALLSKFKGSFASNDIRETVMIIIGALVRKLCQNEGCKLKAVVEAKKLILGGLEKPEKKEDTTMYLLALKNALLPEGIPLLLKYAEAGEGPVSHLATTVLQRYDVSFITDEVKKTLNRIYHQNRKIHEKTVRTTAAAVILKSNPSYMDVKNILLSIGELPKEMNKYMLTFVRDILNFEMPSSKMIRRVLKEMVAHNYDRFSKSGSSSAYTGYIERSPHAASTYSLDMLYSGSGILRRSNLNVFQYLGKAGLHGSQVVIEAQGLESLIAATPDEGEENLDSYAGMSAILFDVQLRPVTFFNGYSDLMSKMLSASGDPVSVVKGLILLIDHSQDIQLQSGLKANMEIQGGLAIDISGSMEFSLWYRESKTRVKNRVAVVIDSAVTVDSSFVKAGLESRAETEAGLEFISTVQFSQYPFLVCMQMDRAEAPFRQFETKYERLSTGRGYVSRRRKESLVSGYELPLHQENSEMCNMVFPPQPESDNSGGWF
Description: Analysis of the Inhibition of MTP Activity
The inhibition of the activity of microsomal triglyceride transfer protein (MTP) was tested by using the following operating protocol.
The inhibition of MTP activity with a compound can be quantified by observing the inhibition of the transfer of a labelled triglyceride, from a donor particle to an acceptor particle, in the presence of MTP. The procedure for the preparation of MTP is based on the method by Wetterau and Zilversmit (Biochem. Biophys. Acta (1986) 875, 610). A few grams of golden hamster liver are taken and then rinsed several times in a 250 mM sucrose solution at 0° C. All the following steps proceed at +4° C. A homogenate at a concentration of 50% in 250 mM sucrose is prepared using a Teflon mill and then centrifuged for 10 minutes at 10 000× g at +4° C. The supernatant is then centrifuged at 105 000× g for 75 minutes at +4° C. The supernatant is discarded and the microsomal pellet is taken up in 3 ml (per g of starting liver) of Tris/HCl 150 mM pH 8.0. 1-ml aliquot fractions are stored at −80° C. until the time of use.
After thawing a fraction of microsomes (1 ml), 12 ml of refrigerated Tris/HCl 50 mM, KCl 50 mM, MgCl2 5 mM pH 7.4 buffers and 1.2 ml of deoxycholate (0.54% in water) are added. After incubation for 30 minutes at +4° C. with gentle agitation, the suspension is centrifuged at 105 000× g for 75 minutes. The supernatant comprising the soluble MTP is dialysed against Tris/HCl 150 mM, NaCl 40 mM, EDTA 1 mM, 0.02% sodium azide pH 7.4 buffer (5 times one litre over 2-3 days). The MTP is stored at +4° C., is stable for at least 30 days and is used in unmodified form in the test.
The donor particles (liposomes) are prepared from 208 μL of L-phosphatidylcholine at a concentration of 10 mg/ml in chloroform, and 480 μL of. [3H]-triolein at a concentration of 0.5 mCi/ml in toluene. After stirring, the solution is evaporated under nitrogen, taken up in 6 ml of Tris/HCl 50 mM, KCl 50 mM, MgCl2 5 mM pH 7.4 buffer and incubated in an ultrasound bath for 30 minutes at room temperature. The liposomes are stored at +4° C. and sonicated again for 10 minutes before each use.
The acceptor particles are biotinylated low density lipoproteins (LDL-biot). These particles are supplied by the company Amersham.
The reaction mixture is prepared in untreated 1/2 well white plates (Corning Costar) by addition, in the following order, of: 5 μL of HEPES 50 mM, NaCl 150 mM, BSA 0.1% (w/v), 0.05% sodium azide (w/v), pH 7.4 buffer; 5 μL of liposomes; 5 μL of LDL-biot; 5 μL of test products in DMSO; 5 μL of MTP. After incubation for 18-24 hours at 37° C., the reaction is stopped by adding 100 μL of Amersham SPA (Scintillation Proximity Assay) beads coupled to streptavidin, and the radioactivity is counted using a Top Count (Packard) machine at least one hour later. The inhibition of the transfer of the triglycerides with a compound is reflected by a reduction in the transferred radioactivity.
The results are expressed in terms of the IC50, i.e. the concentration that allows a 50% inhibition of MTP.

pIC50 [1]	pIC50 [2]	SMILES
7.92	7.24	CCN(C(=O)c1csc(C2CCN(C(=O)c3ccccc3-c3ccc(C(F)(F)F)cc3)CC2)n1)C(C)C(=O)c1ccccc1 (stereo not shown) [Example 3]
6.51	6.14	CC(C(=O)c1ccccc1)N(C)C(=O)c1csc(C2CCN(C(=O)c3ccccc3-c3ccc(C(F)(F)F)cc3)CC2)n1 (stereo not shown) [Example 4]
	6.78	CC(C)N(C(=O)c1csc(C2CCN(C(=O)c3ccccc3-c3ccc(C(F)(F)F)cc3)CC2)n1)C(C#N)c1ccccc1 (stereo not shown) [Example 10]
6.54	6.41	CCN(C(=O)c1csc(C2CCN(C(=O)c3ccccc3-c3ccc(C(F)(F)F)cc3)CC2)n1)C(C)C(=O)c1cccnc1 (stereo not shown) [Example 6]
6.54	6.18	C[C@H](C(=O)c1ccccc1)N(C)C(=O)c1csc(C2CCN(C(=O)c3ccccc3-c3ccc(C(F)(F)F)cc3)CC2)n1 [Example 5]
8.15	7.24	CCN(C(=O)c1csc(C2CCN(C(=O)c3ccccc3-c3ccc(C(F)(F)F)cc3)CC2)n1)C(C#N)c1ccccc1 (stereo not shown) [Example 9]

SMILES	pIC50 [1]	pIC50 [2]
CCN(C(=O)c1csc(C2CCN(C(=O)c3cccc(C)c3-c3ccc(OC(F)(F)F)cc3)CC2)n1)C(C)C(=O)c1ccccc1 (stereo not shown) [Example 1, 2-[1-(6-Methyl-4’-trifluoromethoxybiphenyl-2-carbonyl)piperid-4-yl]thiazol-4-carbonyl[N-ethyl-N-(1-methyl-2-oxo-2-phenylethyl)]amide]	7.70	7.29
